Laboratory results taken from PMC12049818, “Identification of NUV-244 as a PNPLA3 I148M degrading small molecule” (iScience, 2025).

Target: T1, PNPLA3 I148M-tagRFP (Homo sapiens, UniProt Q9NST1, I148M)
T1 construct: host or cells: Huh7
T1 sequence (Q9NST1 1-481 I148M): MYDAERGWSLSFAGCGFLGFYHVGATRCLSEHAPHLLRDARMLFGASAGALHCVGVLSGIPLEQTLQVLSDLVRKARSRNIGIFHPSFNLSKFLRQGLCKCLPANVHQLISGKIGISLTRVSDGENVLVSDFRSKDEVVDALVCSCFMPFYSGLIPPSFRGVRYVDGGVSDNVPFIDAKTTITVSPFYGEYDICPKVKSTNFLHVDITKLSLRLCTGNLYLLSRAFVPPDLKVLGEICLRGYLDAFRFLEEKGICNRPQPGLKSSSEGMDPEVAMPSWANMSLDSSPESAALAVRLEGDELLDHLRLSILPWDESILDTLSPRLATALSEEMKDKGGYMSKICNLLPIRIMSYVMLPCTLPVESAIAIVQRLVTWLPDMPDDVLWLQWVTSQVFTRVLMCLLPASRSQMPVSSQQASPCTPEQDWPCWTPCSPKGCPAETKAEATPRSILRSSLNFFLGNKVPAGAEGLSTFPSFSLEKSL
Test: Time-lapse imaging of PNPLA3 I148M-tagRFP on lipid droplets in Huh7 cells
Format: cell-based
Procedure: To evaluate the kinetics of NUV-244 mediated reduction and degradation of PNPLA3 I148M-tagRFP, we performed time-lapse studies to follow PNPLA3 I148M-tagRFP over time (Figures 5A and 5B). 1μM or 5μM NUV-244 leads to rapid onset of reduction of PNPLA3 I148M-tagRFP on lipid droplets with half maximum effect reached after approximately 2h. To evaluate if PNPLA3 I148M-tagRFP degradation is 26S proteasome dependent, 1μM Bortezomib was co-incubated with NUV-244. Proteasome inhibition prevents PNPLA3 I148M-tagRFP reduction from lipid droplets (Figures 5A and 5B). […] A recent paper identified the E3 ligase responsible for the turnover of endogenous PNPLA3, the ER associated E3 ligase BFAR.[18]
Huh7 cells expressing PNPLA3 I148M-tagRFP were seeded at 4000 cells/well in 30 μL media in 384-well imaging plates (Revvity, PhenoPlate) and stored in a 37°C incubator with 5% CO2 and 95% humidity overnight. Cells were then incubated with Bodipy diluted in growth medium (38nM final concentration) for 1h at 37°C with 5% CO2 and 95% humidity. Cells were treated with DMSO control, 1 μM or 5 μM NUV-244, with or without 1 μM Bortezomib or 5 μM MLN7243. Cells were imaged every 15 minutes over a 20-hour period using an Opera Phenix confocal spinning disc microscope system (Revvity) with a 20x water objective at 561 nm (tagRFP) and 488 nm (BODIPY). Images were analyzed using Harmony software. PNPLA3 I148M-tagRFP intensity on lipid droplets was quantified and compared between treatments.

| SMILES | effect of co-treatment on NUV-244 induced decrease of PNPLA3 I148M-tagRFP on lipid droplets (1μM co-treatment with 1μM or 5μM NUV-244) | effect of co-treatment on NUV-244 induced decrease of PNPLA3 I148M-tagRFP on lipid droplets (5μM co-treatment with 1μM or 5μM NUV-244) |
| --- | --- | --- |
| CC(C)C[C@H](NC(=O)[C@H](Cc1ccccc1)NC(=O)c1cnccn1)B(O)O [Bortezomib] | rescue of degradation |  |
| NS(=O)(=O)OC[C@H]1C[C@@H](Nc2ccnc3cc(-c4cccc(SC(F)(F)F)c4)nn23)[C@H](O)[C@@H]1O [MLN7243] |  | rescue of degradation |
